Consider 20 compounds from patent US12371428B2 (Exelixis, Inc., priority 2019, dated 2025).

Holding throughout (assay type): biochemical
Assay [1] deals with Human KDR (residues 790-1356) (Homo sapiens (Human), UniProt P35968). As to the kind of experiment: Human KDR kinase assay, HTRF KinEase (Example B-2). Conditions: protocol of Example B-2 (other compounds). The essentials: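 Human KDR residues 790-1356 (0.1 ng/well) in buffer with 5 mM MgCl2, 1 mM MnCl2, 1 mM DTT, biotinylated peptide substrate, ATP at Km (4.0 μM), 3% DMSO, 10 compound concentrations; 40 min, room temperature. EDTA stop, streptavidin-XL665/Eu-TK antibody HTRF read 665/620 nm; 4-parameter IC50.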
Chain of Human KDR (residues 790-1356) (P35968 790-1356): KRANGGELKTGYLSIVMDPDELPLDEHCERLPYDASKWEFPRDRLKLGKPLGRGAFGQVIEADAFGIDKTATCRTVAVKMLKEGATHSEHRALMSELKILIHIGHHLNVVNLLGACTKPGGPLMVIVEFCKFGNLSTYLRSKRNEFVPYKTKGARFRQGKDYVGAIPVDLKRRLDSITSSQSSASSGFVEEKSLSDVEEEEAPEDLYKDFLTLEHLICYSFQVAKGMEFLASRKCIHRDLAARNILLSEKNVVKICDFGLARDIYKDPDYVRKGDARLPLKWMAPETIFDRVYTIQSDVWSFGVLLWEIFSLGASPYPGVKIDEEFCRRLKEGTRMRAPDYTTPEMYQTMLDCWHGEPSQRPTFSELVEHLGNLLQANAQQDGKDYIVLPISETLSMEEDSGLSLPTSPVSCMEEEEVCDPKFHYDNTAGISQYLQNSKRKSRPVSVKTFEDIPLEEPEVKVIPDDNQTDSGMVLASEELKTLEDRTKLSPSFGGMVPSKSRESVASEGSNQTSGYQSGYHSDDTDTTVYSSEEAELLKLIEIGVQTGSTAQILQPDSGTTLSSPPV
In general terms: Time-resolved FRET reads energy transfer from a long-lived donor to a nearby acceptor.

For assay [2], the target named is Human MET (residues 956-1390) (Homo sapiens (Human), UniProt P08581). Nature of the assay: Human Met kinase assay, HTRF KinEase (Example D-2). The following applies: protocol of Example D-2 (other compounds); read-out: c-Met IC50. The essentials: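 MET kinase domain (956-1390), 0.1 ng/well, in buffer with 5 mM MgCl2, 1 mM DTT and 1 mM MnCl2, phosphorylated a biotinylated peptide at ATP Km for 40 min at RT; 10 concentrations, 3% DMSO final. EDTA-stopped HTRF read after 60 min; IC50 from a 4-parameter logistic fit.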
Chain of Human MET (residues 956-1390) (P08581 956-1390): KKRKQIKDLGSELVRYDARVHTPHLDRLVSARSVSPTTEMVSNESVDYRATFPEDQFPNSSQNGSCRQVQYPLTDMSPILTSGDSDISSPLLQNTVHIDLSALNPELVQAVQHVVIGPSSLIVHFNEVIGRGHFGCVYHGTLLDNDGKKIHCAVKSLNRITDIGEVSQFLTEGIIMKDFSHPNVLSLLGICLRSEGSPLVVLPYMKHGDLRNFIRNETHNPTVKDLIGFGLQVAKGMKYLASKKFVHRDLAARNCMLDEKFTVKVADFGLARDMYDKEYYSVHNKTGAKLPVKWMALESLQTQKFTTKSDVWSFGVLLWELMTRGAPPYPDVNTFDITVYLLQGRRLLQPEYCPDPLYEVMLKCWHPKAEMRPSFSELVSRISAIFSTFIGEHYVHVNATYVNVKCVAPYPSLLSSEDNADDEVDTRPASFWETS

The target of assay [3] is Human MER (residues 528-999) (Homo sapiens (Human), UniProt Q12866). Nature of the assay: Human Mer kinase assay, HTRF KinEase (Example C-2). The following applies: protocol of Example C-2 (other compounds). The essentials:
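Recombinant MER 528-999 (1 ng/well) in buffer with 5 mM MgCl2 and 1 mM DTT was reacted with biotinylated peptide and ATP at Km (40 μM) for 60 min at room temperature. EDTA stop with SA-XL665 and Eu3+ TK antibody, then 665/620 nm HTRF read; IC50 from 4-parameter fit.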

SMILES strings stand for the structures. Counter-ions that a name gives are not always drawn.

By IC50 is commonly meant the point on the concentration scale where inhibition reaches its midpoint.

Chain of Human MER (residues 528-999) (Q12866 528-999): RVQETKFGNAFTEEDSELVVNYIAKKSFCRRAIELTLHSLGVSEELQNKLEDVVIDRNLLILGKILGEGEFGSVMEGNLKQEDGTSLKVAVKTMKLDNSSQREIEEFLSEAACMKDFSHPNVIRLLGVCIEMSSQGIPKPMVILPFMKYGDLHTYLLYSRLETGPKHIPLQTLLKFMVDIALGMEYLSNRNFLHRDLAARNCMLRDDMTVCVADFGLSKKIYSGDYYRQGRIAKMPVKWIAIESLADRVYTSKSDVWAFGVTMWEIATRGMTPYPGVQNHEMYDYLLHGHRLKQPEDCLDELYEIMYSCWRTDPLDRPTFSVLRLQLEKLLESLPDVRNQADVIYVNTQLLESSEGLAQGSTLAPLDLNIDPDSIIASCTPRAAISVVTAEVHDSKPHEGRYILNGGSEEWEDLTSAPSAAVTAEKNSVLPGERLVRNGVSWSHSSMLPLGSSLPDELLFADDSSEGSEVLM

Regarding `COc1cc2nccc(Oc3ccc(NC(=O)C4=C5CCCN5CC(c5ccc(F)cc5)C4=O)cc3F)c2nc1OC` (racemic) [Compound 373, N-[4-[(6,7-dimethoxy-1,5-naphthyridin-4-yl)oxy]-3-fluorophenyl]-6-(4-fluorophenyl)-7-oxo-2,3,5,6-tetrahydro-1H-indolizine-8-carboxamide], the IC50 in assay [1] is more than 300 nM; in assay [2], less than 100 nM; in assay [3] it was less than 100 nM.

As for `COc1cc2nccc(Oc3ccc(NC(=O)C4=C5CCCN5CC(c5ccc(F)cc5)C4=O)cc3F)c2nc1OC` (single isomer, unassigned; enantiomer 1) [Compound 374, N-[4-[(6,7-dimethoxy-1,5-naphthyridin-4-yl)oxy]-3-fluorophenyl]-6-(4-fluorophenyl)-7-oxo-2,3,5,6-tetrahydro-1H-indolizine-8-carboxamide, enantiomer 1], the IC50 was more than 300 nM in assay [1], less than 100 nM in assay [2] and less than 100 nM in assay [3].

For `COc1cc2nccc(Oc3ccc(NC(=O)c4cn(C)cc(-c5ccc(Cl)cc5)c4=O)cc3F)c2nc1OC` [Compound 38, 5-(4-Chlorophenyl)-N-[4-[(6,7-dimethoxy-1,5-naphthyridin-4-yl)oxy]-3-fluorophenyl]-1-methyl-4-oxopyridine-3-carboxamide hydrochloride], the IC50 in assay [1] is 100 to 300 nM; in assay [2], less than 100 nM; in assay [3], less than 100 nM.

Consider `COc1cc2nccc(Oc3ccc(NC(=O)c4cn(C)cc(-c5ccccc5)c4=O)cc3)c2nc1OC` [Compound 39, N-[4-[(6,7-Dimethoxy-1,5-naphthyridin-4-yl)oxy]phenyl]-1-methyl-4-oxo-5-phenylpyridine-3-carboxamide hydrochloride], for which the IC50 in assay [1], in assay [2] and in assay [3] was less than 100 nM each time.

For the compound `COc1cnc2c(Oc3ccc(NC(=O)c4cn(C)cc(-c5ccccc5)c4=O)cc3F)ccnc2c1` [Compound 40, N-[3-Fluoro-4-[(7-methoxy-1,5-naphthyridin-4-yl)oxy]phenyl]-1-methyl-4-oxo-5-phenylpyridine-3-carboxamide hydrochloride], the IC50 in assay [1] was more than 300 nM; in assay [2] it was less than 100 nM; in assay [3], less than 100 nM.

Consider `COc1cnc2c(Oc3ccc(NC(=O)c4ncc(C)n(-c5ccc(F)cc5)c4=O)cc3)ccnc2c1` [Compound 263, 4-(4-Fluorophenyl)-N-[4-[(7-methoxy-1,5-naphthyridin-4-yl)oxy]phenyl]-5-methyl-3-oxopyrazine-2-carboxamide], for which the 50% inhibitory concentration (IC50) is more than 300 nM in assay [1], less than 100 nM in assay [2] and less than 100 nM in assay [3].

Consider `COc1ccc2nccc(Oc3ccc(NC(=O)c4ncc(C)n(-c5ccc(F)cc5)c4=O)cc3F)c2n1` [Compound 264, N-[3-Fluoro-4-[(6-methoxy-1,5-naphthyridin-4-yl)oxy]phenyl]-4-(4-fluorophenyl)-5-methyl-3-oxopyrazine-2-carboxamide], for which the IC50 in assay [1] is more than 300 nM; in assay [2] it was less than 100 nM; in assay [3], less than 100 nM.

In the case of `COc1cnc2c(Oc3ccc(NC(=O)c4cnc(C)n(-c5ccc(F)cc5)c4=O)cc3F)ccnc2c1` [Compound 265, N-[3-Fluoro-4-[(7-methoxy-1,5-naphthyridin-4-yl)oxy]phenyl]-1-(4-fluorophenyl)-2-methyl-6-oxopyrimidine-5-carboxamide], the IC50 is more than 300 nM in assay [1], less than 100 nM in assay [2] and less than 100 nM in assay [3].

On to `COc1cnc2c(Oc3ccc(NC(=O)c4cnc(C)n(-c5ccc(F)cc5)c4=O)cc3)ccnc2c1` [Compound 266, 1-(4-Fluorophenyl)-N-[4-[(7-methoxy-1,5-naphthyridin-4-yl)oxy]phenyl]-2-methyl-6-oxopyrimidine-5-carboxamide], for which the IC50 in assay [1] was more than 300 nM; in assay [2], less than 100 nM; in assay [3], less than 100 nM.

Regarding `COc1cc2nccc(Oc3ccc(NC(=O)c4cn(C)cc(-c5c(C)cc(F)cc5C)c4=O)cc3F)c2nc1OC` [Compound 268, N-[4-[(6,7-Dimethoxy-1,5-naphthyridin-4-yl)oxy]-3-fluorophenyl]-5-(4-fluoro-2,6-dimethylphenyl)-1-methyl-4-oxopyridine-3-carboxamide], the IC50 is more than 300 nM in assay [1], less than 100 nM in assay [2] and less than 100 nM in assay [3].

In the case of `COCc1c(-c2ccc(F)cc2)c(=O)c(C(=O)Nc2ccc(Oc3ccnc4cc(OC)c(OC)nc34)c(F)c2)cn1C` [Compound 269, N-[4-[(6,7-Dimethoxy-1,5-naphthyridin-4-yl)oxy]-3-fluorophenyl]-5-(4-fluorophenyl)-6-(methoxymethyl)-1-methyl-4-oxopyridine-3-carboxamide], the values for the IC50 in assay [1], in assay [2] and in assay [3] were more than 300 nM, less than 100 nM and less than 100 nM, respectively.

Regarding `COCc1c(-c2ccc(F)cc2)c(=O)c(C(=O)Nc2ccc(Oc3ccnc4cc(OC)cnc34)c(F)c2)cn1C` [Compound 270, N-[3-Fluoro-4-[(7-methoxy-1,5-naphthyridin-4-yl)oxy]phenyl]-5-(4-fluorophenyl)-6-(methoxymethyl)-1-methyl-4-oxopyridine-3-carboxamide], the results for the IC50 in assay [1], in assay [2] and in assay [3] were more than 300 nM, less than 100 nM and less than 100 nM, respectively.

For `CCn1cc(C(=O)Nc2ccc(Oc3ccnc4cc(OC)c(OC)nc34)c(F)c2)c(=O)c(-c2ccc(F)cc2)c1CO` [Compound 271, N-[4-[(6,7-Dimethoxy-1,5-naphthyridin-4-yl)oxy]-3-fluorophenyl]-1-ethyl-5-(4-fluorophenyl)-6-(hydroxymethyl)-4-oxopyridine-3-carboxamide], the IC50 in assay [1], in assay [2] and in assay [3] was less than 100 nM each time.

Regarding `CCn1cc(C(=O)Nc2ccc(Oc3ccnc4cc(OC)c(OC)nc34)cc2)c(=O)c(-c2ccc(F)cc2)c1CO` [Compound 272, N-[4-[(6,7-Dimethoxy-1,5-naphthyridin-4-yl)oxy]phenyl]-1-ethyl-5-(4-fluorophenyl)-6-(hydroxymethyl)-4-oxopyridine-3-carboxamide], the results for the IC50 in assay [1], in assay [2] and in assay [3] were 100 to 300 nM, less than 100 nM and less than 100 nM, respectively.

For the compound `CCn1cc(C(=O)Nc2ccc(Oc3ccnc4cc(OC)cnc34)c(F)c2)c(=O)c(-c2ccc(F)cc2)c1CO` [Compound 273, 1-Ethyl-N-[3-fluoro-4-[(7-methoxy-1,5-naphthyridin-4-yl)oxy]phenyl]-5-(4-fluorophenyl)-6-(hydroxymethyl)-4-oxopyridine-3-carboxamide], the IC50 in assay [1] was more than 300 nM; in assay [2], less than 100 nM; in assay [3] it was less than 100 nM.

As for `CCn1cc(C(=O)Nc2ccc(Oc3ccnc4cc(OC)cnc34)cc2)c(=O)c(-c2ccc(F)cc2)c1CO` [Compound 274, 1-Ethyl-5-(4-fluorophenyl)-6-(hydroxymethyl)-N-[4-[(7-methoxy-1,5-naphthyridin-4-yl)oxy]phenyl]-4-oxopyridine-3-carboxamide], the IC50 in assay [1] was more than 300 nM; in assay [2], less than 100 nM; in assay [3], less than 100 nM.

As to `Cc1ccc(C(=O)Nc2ccc(Oc3ccnc4cc(OCc5ccccc5)cnc34)c(F)c2)c(=O)n1-c1ccc(F)cc1` [Compound 275, 1-(4-Fluorophenyl)-N-[3-fluoro-4-[(7-phenylmethoxy-1,5-naphthyridin-4-yl)oxy]phenyl]-6-methyl-2-oxopyridine-3-carboxamide], the results for the IC50 in assay [1], in assay [2] and in assay [3] were 100 to 300 nM, 100 to 300 nM and less than 100 nM, respectively.

With `COc1ccc2nccc(Oc3ccc(NC(=O)c4ccc(C)n(-c5ccc(F)cc5C)c4=O)cc3)c2n1` [Compound 276, 1-(4-Fluoro-2-methylphenyl)-N-[4-[(6-methoxy-1,5-naphthyridin-4-yl)oxy]phenyl]-6-methyl-2-oxopyridine-3-carboxamide], the IC50 in assay [1] is more than 300 nM; in assay [2], 100 to 300 nM; in assay [3], less than 100 nM.

`Cc1nc(C)c(-c2ccc(F)cc2)c(O)c1C(=O)Nc1ccc(Oc2ccnc3cc(OCc4ccccc4)cnc23)c(F)c1` [Compound 277, 5-(4-Fluorophenyl)-N-[3-fluoro-4-[(7-phenylmethoxy-1,5-naphthyridin-4-yl)oxy]phenyl]-4-hydroxy-2,6-dimethylpyridine-3-carboxamide]: the IC50 was 100 to 300 nM in assay [1], less than 100 nM in assay [2] and less than 100 nM in assay [3].

In the case of `Cc1nc(C)n(-c2ccc(F)cc2)c(=O)c1C(=O)Nc1ccc(Oc2ccnc3cc(OCc4ccccc4)cnc23)c(F)c1` [Compound 278, 1-(4-Fluorophenyl)-N-[3-fluoro-4-[(7-phenylmethoxy-1,5-naphthyridin-4-yl)oxy]phenyl]-2,4-dimethyl-6-oxopyrimidine-5-carboxamide], the IC50 in assay [1], in assay [2] and in assay [3] was less than 100 nM in each case.
